Measurements: ChEMBL document CHEMBL5523756, “Molecular Transformers: Adaptive Multitarget Ligands for Esterase-Induced Transition from Analgesics to Anesthetics” (J Med Chem, 2024)
Calls of active or inactive are those of the source.

Experiments:
[1] = Toxicity in Sprague-Dawley rat assessed as urea level at 19 mg/kg administered as continuous infusion followed by maintenance at 3.25 mg/kg/min for 0 to 20 mins, 2.5 mg/kg/min for 20 to 30 mins and 2 mg/kg/min for 30 to 60 mins; type: organism-based; settings: in vivo, other, 1 h, route par
[2] = (§1) Toxicity in Sprague-Dawley rat assessed as histopathological changes in heart at 19 mg/kg administered as continuous infusion followed by maintenance at 3.25 mg/kg/min for 0 to 20 mins, 2.5 mg/kg/min for 20 to 30 mins and 2 mg/kg/min for 30 to 60 mins and measured after 14 days by H and E staining based analysis; type: organism-based; settings: in vivo, other, 336 h, route par, time 14 day
[3] = Toxicity in Sprague-Dawley rat assessed as change in P-R interval at 19 mg/kg administered as continuous infusion followed by maintenance at 3.25 mg/kg/min for 0 to 20 mins, 2.5 mg/kg/min for 20 to 30 mins and 2 mg/kg/min for 30 to 60 mins and measured between 30 to 50 mins by electrocardiogram recording; type: organism-based; settings: in vivo, other, time 30-50 min, route par
[4] = Toxicity in Sprague-Dawley rat assessed as Q-T interval prolongation at 19 mg/kg administered as continuous infusion followed by maintenance at 3.25 mg/kg/min for 0 to 20 mins, 2.5 mg/kg/min for 20 to 30 mins and 2 mg/kg/min for 30 to 60 mins by electrocardiogram recording; type: organism-based; settings: in vivo, other, 1 h, route par
[5] = target: T1, Sodium channel protein type 10 subunit alpha (Homo sapiens, UniProt Q9Y5Y9); assay: Binding affinity to Nav1.8 (unknown origin) expressed in HEK293T cells assessed as retention time of compound at 1 mg/ml by cell membrane chromatography; type: cell membranes
Target sequence in this assay (Q9Y5Y9 whole entry, looked up, the tested form may be a part): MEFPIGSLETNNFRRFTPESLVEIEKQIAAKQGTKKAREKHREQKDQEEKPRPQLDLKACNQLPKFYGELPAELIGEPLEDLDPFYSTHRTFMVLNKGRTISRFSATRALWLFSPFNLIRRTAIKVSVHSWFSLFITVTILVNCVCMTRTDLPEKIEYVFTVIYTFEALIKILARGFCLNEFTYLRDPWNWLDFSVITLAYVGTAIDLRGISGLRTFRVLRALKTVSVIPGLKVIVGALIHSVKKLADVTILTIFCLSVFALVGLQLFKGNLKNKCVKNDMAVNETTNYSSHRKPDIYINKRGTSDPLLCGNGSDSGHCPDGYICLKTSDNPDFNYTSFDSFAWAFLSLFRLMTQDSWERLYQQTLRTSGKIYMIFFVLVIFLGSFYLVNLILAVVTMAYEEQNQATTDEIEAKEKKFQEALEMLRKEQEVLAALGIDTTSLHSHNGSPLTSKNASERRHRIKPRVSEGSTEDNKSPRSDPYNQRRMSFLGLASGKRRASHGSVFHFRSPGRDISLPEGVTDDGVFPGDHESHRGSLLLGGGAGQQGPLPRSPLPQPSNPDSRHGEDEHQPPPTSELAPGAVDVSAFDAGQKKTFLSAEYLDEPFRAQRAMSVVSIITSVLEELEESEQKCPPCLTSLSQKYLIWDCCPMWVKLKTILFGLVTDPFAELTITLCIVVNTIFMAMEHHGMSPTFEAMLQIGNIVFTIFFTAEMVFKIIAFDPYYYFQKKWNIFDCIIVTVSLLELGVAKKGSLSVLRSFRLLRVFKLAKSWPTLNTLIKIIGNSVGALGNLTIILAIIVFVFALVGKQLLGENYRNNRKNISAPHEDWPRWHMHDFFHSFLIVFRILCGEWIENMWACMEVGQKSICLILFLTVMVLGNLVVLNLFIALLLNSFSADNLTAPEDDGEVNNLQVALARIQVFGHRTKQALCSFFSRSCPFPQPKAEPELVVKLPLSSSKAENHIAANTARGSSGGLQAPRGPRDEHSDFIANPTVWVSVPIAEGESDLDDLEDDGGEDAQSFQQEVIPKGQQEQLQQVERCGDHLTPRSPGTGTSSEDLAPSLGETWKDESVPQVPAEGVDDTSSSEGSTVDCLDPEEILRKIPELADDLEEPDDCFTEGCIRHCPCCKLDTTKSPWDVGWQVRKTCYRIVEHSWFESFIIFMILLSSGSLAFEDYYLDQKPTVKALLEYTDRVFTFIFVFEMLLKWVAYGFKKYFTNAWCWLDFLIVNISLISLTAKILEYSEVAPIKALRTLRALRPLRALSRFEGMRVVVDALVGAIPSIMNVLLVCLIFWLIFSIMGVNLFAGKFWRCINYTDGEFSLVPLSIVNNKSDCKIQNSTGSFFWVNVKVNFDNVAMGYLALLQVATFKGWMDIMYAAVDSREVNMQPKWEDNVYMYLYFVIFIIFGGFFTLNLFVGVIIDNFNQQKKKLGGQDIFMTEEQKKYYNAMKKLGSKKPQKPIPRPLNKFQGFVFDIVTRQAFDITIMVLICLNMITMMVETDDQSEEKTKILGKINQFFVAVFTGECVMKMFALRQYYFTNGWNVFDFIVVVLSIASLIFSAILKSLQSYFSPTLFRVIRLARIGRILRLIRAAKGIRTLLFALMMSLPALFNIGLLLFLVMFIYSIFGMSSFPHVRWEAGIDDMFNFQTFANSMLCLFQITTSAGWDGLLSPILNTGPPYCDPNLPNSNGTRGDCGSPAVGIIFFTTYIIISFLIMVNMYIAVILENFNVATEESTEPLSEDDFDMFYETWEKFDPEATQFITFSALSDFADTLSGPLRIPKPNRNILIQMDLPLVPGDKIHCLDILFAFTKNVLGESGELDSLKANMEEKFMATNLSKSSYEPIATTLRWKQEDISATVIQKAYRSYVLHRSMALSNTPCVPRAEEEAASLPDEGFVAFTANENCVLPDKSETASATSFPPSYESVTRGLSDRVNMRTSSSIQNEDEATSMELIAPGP

[6] = (§2) Toxicity in Sprague-Dawley rat assessed as effect on AST level at 19 mg/kg administered as continuous infusion followed by maintenance at 3.25 mg/kg/min for 0 to 20 mins, 2.5 mg/kg/min for 20 to 30 mins and 2 mg/kg/min for 30 to 60 mins; type: organism-based; settings: in vivo, other, 1 h, route par
Cytochrome P450 3A4 = Cytochrome P450 3A4 (Homo sapiens, UniProt P08684); assay: Inhibition of CYP3A4 (unknown origin) using midazolam as substrate at 10 uM; type: ADME
Sequence of Cytochrome P450 3A4 (P08684 whole entry): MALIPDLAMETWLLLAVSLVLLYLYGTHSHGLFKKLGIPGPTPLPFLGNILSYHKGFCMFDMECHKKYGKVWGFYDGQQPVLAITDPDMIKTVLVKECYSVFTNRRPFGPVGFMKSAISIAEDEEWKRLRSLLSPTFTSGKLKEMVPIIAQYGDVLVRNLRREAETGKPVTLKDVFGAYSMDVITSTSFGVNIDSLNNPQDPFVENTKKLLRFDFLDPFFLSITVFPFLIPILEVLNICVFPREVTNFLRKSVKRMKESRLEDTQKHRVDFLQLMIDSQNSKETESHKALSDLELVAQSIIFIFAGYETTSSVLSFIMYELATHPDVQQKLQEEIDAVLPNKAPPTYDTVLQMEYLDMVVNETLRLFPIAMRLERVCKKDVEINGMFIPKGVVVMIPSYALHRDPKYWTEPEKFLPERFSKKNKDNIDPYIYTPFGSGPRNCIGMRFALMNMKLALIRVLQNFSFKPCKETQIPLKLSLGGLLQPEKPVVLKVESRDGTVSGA

[7] = Drug metabolism in mouse liver microsomes assessed as propofol release by measuring half life at 1 mg/ml measured upto 360 mins by LC-MS analysis; type: ADME, Microsome; settings: 6 h
[8] = target: T1, Sodium channel protein type 10 subunit alpha; assay: Inhibition of Nav1.8 channel (unknown origin) at resting state at -120 mV conditioning pulse by voltage clamp electrophysiological recording
Target sequence in this assay (Q9Y5Y9 whole entry, the tested form may be a part): as the sequence (Q9Y5Y9 whole entry, looked up, the tested form may be a part) above

[9] = Drug metabolism in human liver microsomes assessed as propofol release by measuring half life at 1 mg/ml measured upto 360 mins by LC-MS analysis; type: ADME, Microsome; settings: 6 h
Rattus norvegicus [10] = assay: Analgesic activity in Sprague-Dawley rat model of mechanical nociceptive irritation assessed as response to tail pinch at 19 mg/kg administered as continuous infusion followed by maintenance at 3.25 mg/kg/min for 0 to 20 mins, 2.5 mg/kg/min for 20 to 30 mins and 2 mg/kg/min for 30 to 60 mins; type: functional, organism-based; settings: route par
DRG neuron [11] = assay: Modulation of CFA-induced male ICR mouse DRG neuron excitability assessed as reduction in resting membrane potential at 10 uM by whole cell […] assay; type: functional, cell-based
[12] = Toxicity in Sprague-Dawley rat assessed as effect on gastrointestinal function by measuring ink peristalsis at 19 mg/kg administered as continuous infusion followed by maintenance at 3.25 mg/kg/min for 0 to 20 mins, 2.5 mg/kg/min for 20 to 30 mins and 2 mg/kg/min for 30 to 60 mins and further administered with ink suspension and measured after 10 mins; type: organism-based; settings: in vivo, other, 1.167 h, route par, time 70 min
[13] = target: GABA-A receptor; alpha-1/beta-2/gamma-2 (Homo sapiens) (UniProt P14867+P47870+P18507); assay: Agonist activity at alpha1beta2gamma2 GABA-A receptor (unknown origin) at 10 uM at -70 mV holding potential by electrophysiological recording; type: protein-complex assay
[14] = Toxicity in ICR mouse assessed as histopathological changes in liver at 1.5 times ED50, iv administered as single dose and measured after 14 days by H and E staining based analysis; type: organism-based; settings: in vivo, 336 h, time 14 day
[15] = as §2, with “effect on end inspiratory pause at 19” for “effect on AST level at 19”, “60 mins and measured every 5 mins for 60 mins by whole-body plethysmography” for “60 mins”; type: organism-based; settings: in vivo, other, 1 h, route par
[16] = Stability of compound in 0.1M PBS at 1 mg/ml measured upto 360 mins by HPLC analysis; type: physicochemical; settings: buffer, 6 h
[17] = target: Sodium channel protein type 9 subunit alpha (Homo sapiens, UniProt Q15858); assay: Inhibition of Nav1.7 channel (unknown origin) at resting state at -120 mV conditioning pulse by voltage clamp electrophysiological recording
Sequence of Sodium channel protein type 9 subunit alpha (Q15858 whole entry): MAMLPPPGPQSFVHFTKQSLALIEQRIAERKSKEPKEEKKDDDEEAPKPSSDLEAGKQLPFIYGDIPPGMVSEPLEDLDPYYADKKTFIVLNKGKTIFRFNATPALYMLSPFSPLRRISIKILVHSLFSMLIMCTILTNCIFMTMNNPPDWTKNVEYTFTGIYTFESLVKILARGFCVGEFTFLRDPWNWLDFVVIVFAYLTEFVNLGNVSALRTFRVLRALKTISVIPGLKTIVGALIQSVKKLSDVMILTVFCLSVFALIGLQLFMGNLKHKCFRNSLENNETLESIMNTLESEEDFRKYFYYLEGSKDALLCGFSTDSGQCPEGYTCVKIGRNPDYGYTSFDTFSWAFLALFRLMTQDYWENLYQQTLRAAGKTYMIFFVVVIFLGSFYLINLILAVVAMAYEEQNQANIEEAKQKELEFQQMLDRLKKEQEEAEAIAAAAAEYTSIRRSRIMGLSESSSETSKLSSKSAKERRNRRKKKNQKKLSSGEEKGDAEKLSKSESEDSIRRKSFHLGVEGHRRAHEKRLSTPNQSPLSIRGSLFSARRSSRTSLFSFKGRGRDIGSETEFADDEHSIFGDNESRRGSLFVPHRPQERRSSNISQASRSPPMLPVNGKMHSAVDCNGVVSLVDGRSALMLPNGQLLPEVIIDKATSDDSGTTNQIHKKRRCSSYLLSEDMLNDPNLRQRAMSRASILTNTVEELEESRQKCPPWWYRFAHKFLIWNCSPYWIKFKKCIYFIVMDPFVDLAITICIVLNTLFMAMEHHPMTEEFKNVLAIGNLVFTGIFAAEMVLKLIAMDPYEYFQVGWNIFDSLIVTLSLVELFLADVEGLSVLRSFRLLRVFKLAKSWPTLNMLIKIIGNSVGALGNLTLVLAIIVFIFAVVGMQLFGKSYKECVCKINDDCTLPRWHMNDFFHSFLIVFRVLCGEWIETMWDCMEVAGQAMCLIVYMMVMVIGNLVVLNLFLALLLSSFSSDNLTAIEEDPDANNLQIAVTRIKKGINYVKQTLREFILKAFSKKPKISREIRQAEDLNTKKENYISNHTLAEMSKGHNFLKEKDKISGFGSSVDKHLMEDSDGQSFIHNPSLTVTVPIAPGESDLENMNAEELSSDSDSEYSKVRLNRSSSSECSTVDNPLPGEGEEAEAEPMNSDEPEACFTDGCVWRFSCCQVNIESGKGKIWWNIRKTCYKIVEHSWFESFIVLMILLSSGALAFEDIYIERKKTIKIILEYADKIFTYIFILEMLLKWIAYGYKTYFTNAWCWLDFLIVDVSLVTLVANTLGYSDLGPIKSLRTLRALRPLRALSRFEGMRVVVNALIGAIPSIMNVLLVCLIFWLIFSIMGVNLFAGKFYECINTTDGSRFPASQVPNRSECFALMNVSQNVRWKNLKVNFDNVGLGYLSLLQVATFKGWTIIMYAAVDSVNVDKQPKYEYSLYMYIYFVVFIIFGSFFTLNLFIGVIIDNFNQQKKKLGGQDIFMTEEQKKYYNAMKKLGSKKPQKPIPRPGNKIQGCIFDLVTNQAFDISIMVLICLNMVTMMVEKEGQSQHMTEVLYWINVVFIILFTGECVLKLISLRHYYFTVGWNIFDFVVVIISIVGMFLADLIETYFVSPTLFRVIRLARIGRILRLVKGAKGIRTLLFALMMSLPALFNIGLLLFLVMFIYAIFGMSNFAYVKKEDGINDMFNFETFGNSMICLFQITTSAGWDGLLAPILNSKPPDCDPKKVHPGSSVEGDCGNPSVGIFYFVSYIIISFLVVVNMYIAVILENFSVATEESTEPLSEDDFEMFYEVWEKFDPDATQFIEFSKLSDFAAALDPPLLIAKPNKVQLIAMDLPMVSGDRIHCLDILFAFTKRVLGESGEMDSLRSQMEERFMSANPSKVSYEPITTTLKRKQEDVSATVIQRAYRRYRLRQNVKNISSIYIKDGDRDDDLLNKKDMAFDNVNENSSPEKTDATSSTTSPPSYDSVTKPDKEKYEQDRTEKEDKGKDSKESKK

[18] = Stability in mouse plasma assessed as half life at 1 mg/ml measured upto 360 mins by HPLC analysis; type: ADME, cell-free
[19] = target: Sodium channel protein type 5 subunit alpha (Homo sapiens, UniProt Q14524); assay: Inhibition of Nav1.5 channel (unknown origin) at half inactivation state at -120 mV conditioning pulse by voltage clamp electrophysiological recording; type: toxicity
[20] = Drug metabolism in rat liver microsomes assessed as propofol release by measuring half life at 1 mg/ml measured upto 360 mins by LC-MS analysis; type: ADME, Microsome; settings: 6 h
[21] = Toxicity in ICR mouse assessed as histopathological changes in heart at 1.5 times ED50, iv administered as single dose and measured after 14 days by H and E staining based analysis; type: organism-based; settings: in vivo, 336 h, time 14 day
Rattus norvegicus [22] = assay: Anesthesia recovery in Sprague-Dawley rat assessed as effect on recovery time of righting reflex at 19 mg/kg administered as continuous infusion followed by maintenance at 3.25 mg/kg/min for 0 to 20 mins, 2.5 mg/kg/min for 20 to 30 mins and 2 mg/kg/min for 30 to 60 mins; type: functional, organism-based; settings: route par
[23] = Toxicity in Sprague-Dawley rat assessed as effect on creatinine level at 19 mg/kg administered as continuous infusion followed by maintenance at 3.25 mg/kg/min for 0 to 20 mins, 2.5 mg/kg/min for 20 to 30 mins and 2 mg/kg/min for 30 to 60 mins; type: organism-based; settings: in vivo, other, 1 h, route par
[24] = Toxicity in ICR mouse assessed as histopathological changes in kidney at 1.5 times ED50, iv administered as single dose and measured after 14 days by H and E staining based analysis; type: organism-based; settings: in vivo, 336 h, time 14 day
Mus musculus [25] = assay: Antiseizure activity in iv dosed ICR mouse model of PTZ-induced acute seizure assessed as mortality rate preadministered for 1 min followed by PTZ treatment and measured for 7 days (reference value: 83.3%); type: functional; settings: time 7 day
DRG neuron [26] = assay: Modulation of CFA-induced male ICR mouse DRG neuron excitability assessed as reduction in action potential's rheobase at 10 uM by whole cell […] assay; type: functional, cell-based
[27] = as §1, with “liver” for “heart”; type: organism-based; settings: in vivo, other, 336 h, route par, time 14 day
[28] = as §2, with “effect on minute ventilation box at 19” for “effect on AST level at 19”, “60 mins and measured every 5 mins for 60 mins by whole-body plethysmography” for “60 mins”; type: organism-based; settings: in vivo, other, 1 h, route par
Mus musculus [29] = assay: Analgesic effect in ICR mouse model of CFA-induced chronic inflammatory pain assessed as increase in paw withdrawal threshold at 0.07 mmol/kg, ip measured upto 90 mins by Von Frey test; type: functional, organism-based

Compound: CCN(CC)CCOC(=O)Oc1c(C(C)C)cccc1C(C)C.Cl
- Activity [1]: 11.03 mmol/L
- Activity [2]: Non-Toxic
- Activity [3]: Toxic
- Activity [4]: Non-Toxic
- Retention time [5]: 112 min
- Activity [6]: Non-Toxic
- inhibition (INH) (Cytochrome P450 3A4): Not Active
- t1/2 [7]: 45.98 min
- IC50 [8]: > 30 µM
- t1/2 [9]: 54.63 min
- Activity (Rattus norvegicus [10]): Active
- Activity (DRG neuron [11]): inactive
- Activity [12]: Non-Toxic
- Activity [13]: inactive
- Activity [14]: Non-Toxic
- Activity [15]: Non-Toxic
- Stability [16]: Stable
- IC50 [17]: > 30 µM
- half-life at 1 mg/ml [18]: 19.2 min
- IC50 [19]: 20.5 µM
- t1/2 [20]: 81.09 min
- Activity [21]: Non-Toxic
- Activity (Rattus norvegicus [22]): Active
- Activity [23]: Non-Toxic
- Activity [24]: Non-Toxic
- Activity (Mus musculus [25]): 0%
- Activity (DRG neuron [26]): inactive
- Activity [27]: Non-Toxic
- Activity [28]: Non-Toxic
- Activity (Mus musculus [29]): Active
